# Test results: ChEMBL document CHEMBL5055685, “Discovery of the First Potent IDO1/IDO2 Dual Inhibitors: A Promising Strategy for Cancer Immunotherapy” (J Med Chem, 2021)
# Activity calls are given as the source filed them. The calls are words filed in the database; no cut-off is given here.
# How the values were obtained:
# [1] = target: Indoleamine 2,3-dioxygenase 1 (Homo sapiens, UniProt P14902); assay: Inhibition of IDO1 in IFNgamma-stimulated human HeLa cells assessed as reduction in kynurenine formation measured after 48 hrs by spectrophotometry
# [2] = Half life in human liver microsomes; type: ADME, Microsome
# [3] = Intrinsic clearance in monkey liver microsomes; type: ADME, Macaca mulatta, Microsome; conditions: rhesus monkey, read-out: CLH
# [4] = Clearance in mouse liver microsomes; type: ADME, Microsome; conditions: read-out: CLH
# [5] = Protein binding in Beagle dog plasma assessed as fraction unbound by equilibrium dialysis; type: ADME, cell-free, Canis lupus familiaris
# Rattus norvegicus = assay: Toxicity in rat assessed as rat death at […]; type: organism-based; conditions: in vivo
# Mus musculus = assay: In vivo inhibition of IDO1/IDO2 in BALB/c mouse xenografted with human HCT-116 cells assessed as increase in tryptophan level in serum by […]; type: functional, organism-based
# HCT-116 = assay: Antitumor immunity in BALB/c mouse xenografted with human HCT-116 cells assessed as increase in CD86 expression in CD11c+ cells by propidium iodide staining based flow cytometry analysis (reference value: 72 %); type: functional
# [6] = target: Activin receptor type-1-like (Homo sapiens) (UniProt P37023); assay: Inhibition of ALK1 (unknown origin) at 1 uM
# [7] = target: Tyrosine-protein kinase receptor UFO (Homo sapiens) (UniProt P30530); assay: Inhibition of AXL (unknown origin) at 1 uM
# [8] = target: Tyrosine-protein kinase Mer (Homo sapiens) (UniProt Q12866); assay: Inhibition of c-MER (unknown origin) at 1 uM
# [9] = target: Calcium/calmodulin-dependent protein kinase type 1B (Homo sapiens) (UniProt Q6P2M8); assay: Inhibition of CAMK1B (unknown origin) at 1 uM
# [10] = target: Calcium/calmodulin-dependent protein kinase type IV (Homo sapiens) (UniProt Q16566); assay: Inhibition of CAMK4 (unknown origin) at 1 uM
# [11] = target: Cyclin-dependent kinase 4/cyclin D1 (Homo sapiens) (UniProt P11802+P24385); assay: Inhibition of CDK4/cyclin-D1 (unknown origin) at 1 uM; type: protein-complex assay
# [12] = target: CDK4/Cyclin D3 (Homo sapiens) (UniProt P11802+P30281); assay: Inhibition of CDK4/cyclin-D3 (unknown origin) at 1 uM; type: protein-complex assay
# [13] = target: Casein kinase I isoform gamma-1 (Homo sapiens) (UniProt Q9HCP0); assay: Inhibition of CK1gamma1 (unknown origin) at 1 uM
# [14] = target: Mitogen-activated protein kinase kinase kinase 8 (Homo sapiens) (UniProt P41279); assay: Inhibition of COT1 (unknown origin) at 1 uM
# [15] = target: Death-associated protein kinase 1 (Homo sapiens) (UniProt P53355); assay: Inhibition of DAPK1 (unknown origin) at 1 uM
# [16] = target: Discoidin domain-containing receptor 2 (Homo sapiens) (UniProt Q16832); assay: Inhibition of DDR2 (unknown origin) at 1 uM
# [17] = target: Ephrin type-A receptor 3 (Homo sapiens) (UniProt P29320); assay: Inhibition of EPHA3 (unknown origin) at 1 uM
# [18] = target: Ephrin type-A receptor 4 (Homo sapiens) (UniProt P54764); assay: Inhibition of EPHA4 (unknown origin) at 1 uM
# [19] = target: Serine/threonine-protein kinase/endoribonuclease IRE2 (Homo sapiens) (UniProt Q76MJ5); assay: Inhibition of ERN2 (unknown origin) at 1 uM
# [20] = target: Tyrosine-protein kinase Fes/Fps (Homo sapiens) (UniProt P07332); assay: Inhibition of FES (unknown origin) at 1 uM
# [21] = target: Fibroblast growth factor receptor 3 (Homo sapiens) (UniProt P22607); assay: Inhibition of FGFR3 (unknown origin) at 1 uM
# [22] = target: Homeodomain-interacting protein kinase 2 (Homo sapiens) (UniProt Q9H2X6); assay: Inhibition of HIPK2 (unknown origin) at 1 uM
# [23] = target: Serine/threonine-protein kinase LATS2 (Homo sapiens) (UniProt Q9NRM7); assay: Inhibition of LATS2 (unknown origin) at 1 uM
# [24] = target: MAP kinase-activated protein kinase 2 (Homo sapiens) (UniProt P49137); assay: Inhibition of MAPKAPK2 (unknown origin) at 1 uM
# [25] = target: MAP kinase-activated protein kinase 5 (Homo sapiens) (UniProt Q8IW41); assay: Inhibition of MAPKAPK5 (unknown origin) at 1 uM
# [26] = target: Ribosomal protein S6 kinase alpha-5 (Homo sapiens) (UniProt O75582); assay: Inhibition of MSK1 (unknown origin) at 1 uM
# [27] = target: Serine/threonine-protein kinase NIM1 (Homo sapiens) (UniProt Q8IY84); assay: Inhibition of NIM1 (unknown origin) at 1 uM
# [28] = target: Ribosomal protein S6 kinase beta-1 (Homo sapiens) (UniProt P23443); assay: Inhibition of p70S6K (unknown origin) at 1 uM
# [29] = target: Serine/threonine-protein kinase PAK 5 (Homo sapiens) (UniProt Q9P286); assay: Inhibition of PAK5 (unknown origin) at 1 uM
# [30] = target: Serine/threonine-protein kinase PAK 6 (Homo sapiens) (UniProt Q9NQU5); assay: Inhibition of PAK6 (unknown origin) at 1 uM
# [31] = target: Serine/threonine-protein kinase pim-2 (Homo sapiens) (UniProt Q9P1W9); assay: Inhibition of PIM2 (unknown origin) at 1 uM
# [32] = target: Protein kinase C epsilon type (Homo sapiens) (UniProt Q02156); assay: Inhibition of PKCepsilon (unknown origin)at 1 uM
# [33] = target: Serine/threonine-protein kinase D1 (Homo sapiens) (UniProt Q15139); assay: Inhibition of PKCmu (unknown origin) at 1 uM
# Homo sapiens = organism: Homo sapiens; assay: Inhibition of PKG2 (unknown origin) at 1 uM
# [34] = target: Serine/threonine-protein kinase Sgk1 (Homo sapiens) (UniProt O00141); assay: Inhibition of SGK1 (unknown origin) at 1 uM
# [35] = target: Citron Rho-interacting kinase (Homo sapiens) (UniProt O14578); assay: Inhibition of STK21 (unknown origin) at 1 uM
# [36] = target: Tyrosine-protein kinase SYK (Homo sapiens) (UniProt P43405); assay: Inhibition of SYK (unknown origin) at 1 uM
# [37] = target: Serine/threonine-protein kinase ULK2 (Homo sapiens) (UniProt Q8IYT8); assay: Inhibition of ULK2 (unknown origin) at 1 uM
# [38] = target: Wee1-like protein kinase (Homo sapiens) (UniProt P30291); assay: Inhibition of WEE1 (unknown origin) at 1 uM
# [39] = target: Serine/threonine-protein kinase WNK1 (Homo sapiens) (UniProt Q9H4A3); assay: Inhibition of WNK1 (unknown origin) at 1 uM
# [40] = target: Serine/threonine-protein kinase WNK2 (Homo sapiens) (UniProt Q9Y3S1); assay: Inhibition of WNK2 (unknown origin) at 1 uM
# [41] = target: Serine/threonine-protein kinase OSR1 (Homo sapiens) (UniProt O95747); assay: Inhibition of OSR1 (unknown origin) at 1 uM
# Chain of Serine/threonine-protein kinase WNK2 (Homo sapiens) (Q9Y3S1 whole entry): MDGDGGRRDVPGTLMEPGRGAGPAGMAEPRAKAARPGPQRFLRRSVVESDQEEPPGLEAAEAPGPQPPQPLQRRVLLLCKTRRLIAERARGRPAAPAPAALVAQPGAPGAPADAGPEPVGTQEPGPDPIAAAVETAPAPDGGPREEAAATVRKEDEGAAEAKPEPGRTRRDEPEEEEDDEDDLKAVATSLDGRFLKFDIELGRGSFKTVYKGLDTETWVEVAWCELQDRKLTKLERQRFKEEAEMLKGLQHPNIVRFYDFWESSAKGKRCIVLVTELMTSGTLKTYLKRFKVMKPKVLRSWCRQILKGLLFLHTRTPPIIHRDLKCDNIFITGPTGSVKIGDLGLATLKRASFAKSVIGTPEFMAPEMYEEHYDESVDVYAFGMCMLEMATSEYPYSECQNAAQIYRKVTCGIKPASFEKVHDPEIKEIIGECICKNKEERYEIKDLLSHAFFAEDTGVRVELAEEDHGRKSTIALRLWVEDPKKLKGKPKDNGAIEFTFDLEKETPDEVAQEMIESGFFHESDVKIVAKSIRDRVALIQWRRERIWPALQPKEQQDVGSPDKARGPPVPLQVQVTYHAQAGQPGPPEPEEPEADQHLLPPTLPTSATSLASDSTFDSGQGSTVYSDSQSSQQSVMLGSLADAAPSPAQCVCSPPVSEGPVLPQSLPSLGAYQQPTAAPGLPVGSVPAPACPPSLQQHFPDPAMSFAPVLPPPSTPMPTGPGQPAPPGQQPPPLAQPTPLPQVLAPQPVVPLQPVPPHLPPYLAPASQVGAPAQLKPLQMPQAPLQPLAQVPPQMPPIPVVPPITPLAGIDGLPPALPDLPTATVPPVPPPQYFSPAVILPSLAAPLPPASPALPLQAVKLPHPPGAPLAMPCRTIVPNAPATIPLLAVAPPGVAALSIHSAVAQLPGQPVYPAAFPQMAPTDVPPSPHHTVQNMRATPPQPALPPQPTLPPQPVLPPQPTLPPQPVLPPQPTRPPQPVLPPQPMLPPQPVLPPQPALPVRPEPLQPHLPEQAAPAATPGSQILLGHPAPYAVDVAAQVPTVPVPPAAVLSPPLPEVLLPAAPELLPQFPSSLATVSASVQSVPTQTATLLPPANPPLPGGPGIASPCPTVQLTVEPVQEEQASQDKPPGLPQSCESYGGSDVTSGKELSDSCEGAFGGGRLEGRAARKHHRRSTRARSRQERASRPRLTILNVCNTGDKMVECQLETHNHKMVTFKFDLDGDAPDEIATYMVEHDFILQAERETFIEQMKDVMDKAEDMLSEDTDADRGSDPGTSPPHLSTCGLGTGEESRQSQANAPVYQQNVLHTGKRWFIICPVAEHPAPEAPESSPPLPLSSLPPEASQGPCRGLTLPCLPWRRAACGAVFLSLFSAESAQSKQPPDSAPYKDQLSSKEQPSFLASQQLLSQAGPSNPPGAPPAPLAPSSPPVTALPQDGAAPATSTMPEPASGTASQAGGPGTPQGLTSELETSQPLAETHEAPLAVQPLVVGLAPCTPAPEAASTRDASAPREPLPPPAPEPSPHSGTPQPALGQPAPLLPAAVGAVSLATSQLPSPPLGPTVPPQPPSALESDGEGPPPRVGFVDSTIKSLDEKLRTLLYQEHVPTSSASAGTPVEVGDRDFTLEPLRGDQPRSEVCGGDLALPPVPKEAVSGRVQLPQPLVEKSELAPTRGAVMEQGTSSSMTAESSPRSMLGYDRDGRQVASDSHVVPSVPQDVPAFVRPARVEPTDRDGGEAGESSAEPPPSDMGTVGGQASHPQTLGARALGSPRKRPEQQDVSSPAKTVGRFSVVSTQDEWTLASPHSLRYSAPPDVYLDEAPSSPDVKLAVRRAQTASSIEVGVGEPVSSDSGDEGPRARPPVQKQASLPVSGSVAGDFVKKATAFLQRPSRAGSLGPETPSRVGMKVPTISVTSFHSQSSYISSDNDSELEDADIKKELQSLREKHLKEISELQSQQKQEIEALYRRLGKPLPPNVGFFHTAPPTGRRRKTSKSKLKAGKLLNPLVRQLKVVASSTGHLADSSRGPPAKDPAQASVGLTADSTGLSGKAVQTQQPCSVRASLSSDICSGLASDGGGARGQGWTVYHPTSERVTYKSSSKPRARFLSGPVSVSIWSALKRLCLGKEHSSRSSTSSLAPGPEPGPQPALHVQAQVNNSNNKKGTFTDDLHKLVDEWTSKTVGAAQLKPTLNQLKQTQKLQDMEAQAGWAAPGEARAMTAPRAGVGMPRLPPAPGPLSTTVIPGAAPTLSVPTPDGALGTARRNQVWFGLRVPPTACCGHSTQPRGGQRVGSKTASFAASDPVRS
# Chain of MAP kinase-activated protein kinase 5 (Homo sapiens) (Q8IW41 whole entry): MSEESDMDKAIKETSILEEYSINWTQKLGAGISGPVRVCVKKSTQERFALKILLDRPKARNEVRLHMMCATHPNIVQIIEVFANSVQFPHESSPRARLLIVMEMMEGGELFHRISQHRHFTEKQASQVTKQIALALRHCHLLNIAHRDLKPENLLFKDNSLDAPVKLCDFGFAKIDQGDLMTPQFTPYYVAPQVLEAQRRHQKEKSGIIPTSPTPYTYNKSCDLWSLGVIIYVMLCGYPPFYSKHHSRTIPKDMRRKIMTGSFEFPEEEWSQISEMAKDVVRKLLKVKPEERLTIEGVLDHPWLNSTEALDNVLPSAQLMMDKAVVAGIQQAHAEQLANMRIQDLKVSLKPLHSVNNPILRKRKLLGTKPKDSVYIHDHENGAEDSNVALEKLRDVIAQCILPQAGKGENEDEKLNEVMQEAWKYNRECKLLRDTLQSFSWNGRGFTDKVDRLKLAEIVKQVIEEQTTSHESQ
# Chain of MAP kinase-activated protein kinase 2 (Homo sapiens) (P49137 whole entry, looked up): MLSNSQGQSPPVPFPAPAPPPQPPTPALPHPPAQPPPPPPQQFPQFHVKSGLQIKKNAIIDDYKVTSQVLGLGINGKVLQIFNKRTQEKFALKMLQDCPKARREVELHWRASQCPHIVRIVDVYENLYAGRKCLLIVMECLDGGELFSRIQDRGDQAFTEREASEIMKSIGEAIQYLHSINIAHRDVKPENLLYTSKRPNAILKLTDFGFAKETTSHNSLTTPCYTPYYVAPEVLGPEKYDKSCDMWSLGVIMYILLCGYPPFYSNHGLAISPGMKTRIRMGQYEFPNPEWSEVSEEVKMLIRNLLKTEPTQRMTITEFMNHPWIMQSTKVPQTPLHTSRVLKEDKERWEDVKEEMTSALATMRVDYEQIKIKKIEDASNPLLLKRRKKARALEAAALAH
# Chain of Mitogen-activated protein kinase kinase kinase 8 (Homo sapiens) (P41279 whole entry): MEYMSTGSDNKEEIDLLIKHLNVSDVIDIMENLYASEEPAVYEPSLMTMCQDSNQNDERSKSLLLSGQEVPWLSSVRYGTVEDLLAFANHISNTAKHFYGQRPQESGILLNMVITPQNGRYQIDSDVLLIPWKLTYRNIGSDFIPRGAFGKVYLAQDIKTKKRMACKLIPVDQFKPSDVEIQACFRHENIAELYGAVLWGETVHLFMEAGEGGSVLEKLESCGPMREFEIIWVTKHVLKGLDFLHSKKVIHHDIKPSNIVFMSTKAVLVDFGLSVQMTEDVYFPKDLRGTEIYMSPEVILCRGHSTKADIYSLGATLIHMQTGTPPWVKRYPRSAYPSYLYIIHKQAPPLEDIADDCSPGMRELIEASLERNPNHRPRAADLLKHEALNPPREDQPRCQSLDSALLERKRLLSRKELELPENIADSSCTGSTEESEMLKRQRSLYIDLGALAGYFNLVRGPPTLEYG
# Chain of Ephrin type-A receptor 4 (Homo sapiens) (P54764 whole entry): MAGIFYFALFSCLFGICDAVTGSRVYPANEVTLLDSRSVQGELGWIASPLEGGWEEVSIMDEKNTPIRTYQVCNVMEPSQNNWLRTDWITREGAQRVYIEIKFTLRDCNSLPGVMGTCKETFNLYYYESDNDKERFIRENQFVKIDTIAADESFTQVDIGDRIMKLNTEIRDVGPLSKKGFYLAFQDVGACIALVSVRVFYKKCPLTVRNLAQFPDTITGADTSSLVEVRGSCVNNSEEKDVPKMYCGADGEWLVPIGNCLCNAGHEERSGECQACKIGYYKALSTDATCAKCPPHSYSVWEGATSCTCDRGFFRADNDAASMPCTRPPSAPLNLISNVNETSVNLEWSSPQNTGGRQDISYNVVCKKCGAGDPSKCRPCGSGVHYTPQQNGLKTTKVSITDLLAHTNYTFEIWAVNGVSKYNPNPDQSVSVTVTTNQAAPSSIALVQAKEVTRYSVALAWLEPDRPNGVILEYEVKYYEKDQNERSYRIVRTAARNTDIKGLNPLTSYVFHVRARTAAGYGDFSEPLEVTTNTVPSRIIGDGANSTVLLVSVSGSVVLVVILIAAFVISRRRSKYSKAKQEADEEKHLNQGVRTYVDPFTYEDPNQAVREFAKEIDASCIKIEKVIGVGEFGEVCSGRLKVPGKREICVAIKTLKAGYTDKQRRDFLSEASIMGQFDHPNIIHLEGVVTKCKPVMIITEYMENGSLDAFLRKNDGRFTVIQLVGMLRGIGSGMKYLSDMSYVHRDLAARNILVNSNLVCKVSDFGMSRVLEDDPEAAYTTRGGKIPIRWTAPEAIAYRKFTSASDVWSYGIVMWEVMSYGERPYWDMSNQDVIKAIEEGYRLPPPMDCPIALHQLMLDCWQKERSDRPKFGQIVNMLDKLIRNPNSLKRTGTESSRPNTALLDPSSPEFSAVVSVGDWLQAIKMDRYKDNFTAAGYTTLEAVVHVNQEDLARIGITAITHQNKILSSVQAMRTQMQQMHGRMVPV
# Chain of Serine/threonine-protein kinase Sgk1 (Homo sapiens) (O00141 whole entry): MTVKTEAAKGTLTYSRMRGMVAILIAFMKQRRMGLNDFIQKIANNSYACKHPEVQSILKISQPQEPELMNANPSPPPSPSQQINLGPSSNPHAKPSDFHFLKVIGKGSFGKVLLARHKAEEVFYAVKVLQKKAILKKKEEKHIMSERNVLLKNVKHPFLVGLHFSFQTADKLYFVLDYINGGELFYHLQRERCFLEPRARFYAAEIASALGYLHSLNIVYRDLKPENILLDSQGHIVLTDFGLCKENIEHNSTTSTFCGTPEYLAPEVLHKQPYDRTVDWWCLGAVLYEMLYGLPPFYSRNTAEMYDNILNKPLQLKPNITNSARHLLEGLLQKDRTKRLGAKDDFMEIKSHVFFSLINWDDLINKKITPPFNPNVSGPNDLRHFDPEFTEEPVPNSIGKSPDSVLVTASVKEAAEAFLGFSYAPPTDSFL
smiles,measurement,setting,value
OCCOCc1cn(CCNc2nonc2/C(=N/O)Nc2ccc(F)c(Br)c2)nn1,IC50,[1],2.16 nM
same,half-life,[2],46.1 min
same,microsomal CLint,[3],36 µL/min/mg
same,microsomal CLint,[4],32.2 µL/min/mg
same,fraction unbound,[5],0.0498
same,Activity,Rattus norvegicus,Non-Toxic
same,inhibition,Mus musculus,Active
same,Activity,HCT-116,62.6%
same,inhibition,[6],inactive
same,inhibition,[7],inactive
same,inhibition,[8],inactive
same,inhibition,[9],inactive
same,inhibition,[10],inactive
same,inhibition,[11],inactive
same,inhibition,[12],inactive
same,inhibition,[13],inactive
same,inhibition,[14],inactive
same,inhibition,[15],inactive
same,inhibition,[16],inactive
same,inhibition,[17],inactive
same,inhibition,[18],inactive
same,inhibition,[19],inactive
same,inhibition,[20],inactive
same,inhibition,[21],inactive
same,inhibition,[22],inactive
same,inhibition,[23],inactive
same,inhibition,[24],inactive
same,inhibition,[25],inactive
same,inhibition,[26],inactive
same,inhibition,[27],inactive
same,inhibition,[28],inactive
same,inhibition,[29],inactive
same,inhibition,[30],inactive
same,inhibition,[31],inactive
same,inhibition,[32],inactive
same,inhibition,[33],inactive
same,inhibition,Homo sapiens,inactive
same,inhibition,[34],inactive
same,inhibition,[35],inactive
same,inhibition,[36],inactive
same,inhibition,[37],inactive
same,inhibition,[38],inactive
same,inhibition,[39],inactive
same,inhibition,[40],inactive
same,inhibition,[41],inactive
